Experiments:
[1] = tested on: replicative senescent human fibroblasts (HDF); assay: Western blot of p53 and p16, replicative senescent human fibroblasts; format: cell-based; conditions: FIG. 2C
Procedure: (§1) After dispensing 2×10^5 cells in a 100 mm culture dish, they were cultured in a 37° C., 5% CO2 incubator. When the cells grew to 80-90% in the culture dish, the cells were removed by treatment with trypsin-EDTA, and the number of cells was measured, and the cell population doubling time (PDT) was measured.
(§2) By successively subculturing the cells in the same process as described above, replication aging was induced. PDT of young fibroblasts was 36 hours, PDT of replicative senescent fibroblasts was 12 days, PDT of young vascular endothelial cells was 24 hours, and PDT of replicative senescent vascular endothelial cells was 7 days.
After dispensing the cells into a 60 mm culture dish, the cells were cultured overnight in an incubator at 37° C. and 5% CO2. After treatment with salinomycin, ABT263 and rapamycin, it was incubated for 3 days in a 37° C., 5% CO2 incubator. […]
The lysed cells were transferred to a 1.5 ml tube, pipetted 3-4 times, and then left on ice for 20 minutes. After centrifugation at 12,000 rpm for 20 minutes to recover the supernatant, the protein concentration of the supernatant was quantified by BCA analysis. […]

[2] = tested on: replicative senescent vascular endothelial cells (HUVEC); assay: SAβG activity staining, replicative senescent HUVEC; format: cell-based, human; conditions: salinomycin treatment, 4 days; FIG. 4A, 4B
Procedure: as §1, §2
(§3) After each sample was dissolved in DMSO, young cells, replicative senescent cells and senescent cells in which premature aging was induced by treating with doxorubicin were treated with 100 nM salinomycin, 100 nM rapamycin, 100 nM ABT263. After incubation for 4 days in a 37° C., 5% CO2 incubator, the degree of cell survival was confirmed by CCK-8 analysis, the degree of cellular aging was confirmed by senescence-associated β-galactosidase (SAβG) staining, p53 and p16 protein expression analysis.
The cells were washed with 1× phosphate buffer solution, and fixed with a phosphate buffer solution containing 3.7% (v/v) paraformaldehyde. […]

[3] = tested on: premature senescent retinal pigmented epithelial cells (ARPE) by doxorubicin; assay: CCK-8 cell survival, doxorubicin-induced premature senescent retinal pigmented epithelial cells; format: cell-based, human; conditions: 100 nM, 4 days; compared to DMSO-treated group; FIG. 5A, 5B
Procedure: Each cell was treated in a serum-free culture solution containing doxorubicin (0.5 μM) for 4 hours. After washing the cells with a serum-free culture solution, the cells were cultured for 4 days in a culture solution containing 10% FBS, and then cellular aging was confirmed by measuring the level of senescence by staining with senescence-associated beta galactosidase.
as §3
Young cells (1×10^3 cells/well) or senescent cells (2×10^3 cells/well) were dispensed into a 96-well plate, and cultured overnight in a 37° C., 5% CO2 incubator. Salinomycin, ABT263 and rapamycin were treated at each concentration, and then incubated for 4 days in a 37° C., 5% CO2 incubator. […] Then, the absorbance was measured at 450 nm using a Microplate reader.
The degree of cell survival was expressed as a relative value for the absorbance of the control group treated with only DMSO as 100%. […]

SMILES: CC[C@@H](C(=O)[C@@H](C)[C@@H](O)[C@H](C)[C@@H]1O[C@@H]([C@@H](CC)C(=O)O)CC[C@@H]1C)[C@H]1O[C@]2(C=C[C@@H](O)[C@]3(CC[C@@](C)([C@H]4CC[C@](O)(CC)[C@H](C)O4)O3)O2)[C@H](C)C[C@@H]1C [salinomycin]
- expression of p16 protein (Western blot) [1]: reduced
- expression of p53 protein (Western blot) [1]: reduced
- SAβG activity [2]: decreased
- cell survival (CCK-8) [3]: significantly (p<0.01) reduced

From patent US12083093B2, “Composition for preventing or treating cellular senescence-related diseases comprising salinomycin as effective component” (RESEARCH COOPERATION FOUNDATION OF YEUNGNAM UNIVERSITY, priority 2018, dated 2024)
